The structures appear in SMILES notation. Where only a bound is given, the exact number is not on record here.

Test [1] concerns the target Human cGAS amino acids 155-522 (Homo sapiens (Human), UniProt Q8N884). Briefly: cGAS biochemical activity assay (ATP remaining, Kinase-Glo Max luminescence). Conditions: human cGAS 155-522, ATP remaining (Kinase-Glo Max); read-out: cGAS IC50. (In general: Kinase-Glo reads ATP consumption through a luciferase reaction.)
Test [2] deals with cGAS/STING pathway in THP1 cells. Description: THP1 cell-based cGAS/STING pathway activity assay (IRF-3-linked luciferase reporter). Conditions: Homo sapiens, THP-1. The essentials:
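THP1 cells carrying an IRF-3-driven luciferase reporter were read across a range of compound concentrations, and IC50 values were derived from these concentration responses; the assay upper limit was 100 μM.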

Chain of Human cGAS amino acids 155-522 (Q8N884 157-522): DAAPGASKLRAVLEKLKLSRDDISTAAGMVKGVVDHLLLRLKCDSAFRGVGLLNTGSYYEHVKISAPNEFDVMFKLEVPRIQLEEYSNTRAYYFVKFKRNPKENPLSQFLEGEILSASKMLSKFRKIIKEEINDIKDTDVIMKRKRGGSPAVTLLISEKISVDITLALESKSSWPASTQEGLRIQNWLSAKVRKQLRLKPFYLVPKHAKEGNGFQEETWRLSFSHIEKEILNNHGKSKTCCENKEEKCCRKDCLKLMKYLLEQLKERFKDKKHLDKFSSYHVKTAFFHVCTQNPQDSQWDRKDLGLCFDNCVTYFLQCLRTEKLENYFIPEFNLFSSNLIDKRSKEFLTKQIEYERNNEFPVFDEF

For the compound `COc1cccc2oc(-c3c(-c4conc4C)[nH]c4c(-c5ccccc5)c(C(F)(F)F)nn4c3=O)nc12` [Compound C1253, 6-(4-methoxybenzo[d]oxazol-2-yl)-5-(3-methylisoxazol-4-yl)-3-phenyl-2-(trifluoromethyl)pyrazolo[1,5-a]pyrimidin-7(4H)-one], the 50% inhibitory concentration (IC50) (as a rule, the midpoint of a concentration-inhibition curve) in test [1] is < 20 µM; in test [2], 20 to 100 µM.

`COc1cccc2oc(-c3c(-c4cn[nH]c4)[nH]c4c(-c5ccccc5)c(C(F)(F)F)nn4c3=O)nc12` [Compound C1254, 6-(4-methoxybenzo[d]oxazol-2-yl)-3-phenyl-5-(1H-pyrazol-4-yl)-2-(triluoromethyl)pyrazolo[1,5-a]pyrimidin-7(4H)-one]: the IC50 in test [1] is < 20 µM; in test [2], > 100 µM.

As for `COc1cccc2oc(-c3c(-c4cnn(C)c4)[nH]c4c(-c5ccccc5)c(C(F)(F)F)nn4c3=O)nc12` [Compound C1255, 6-(4-methoxybenzo[d]oxazol-2-yl)-5-(1-methyl-1H-pyrazol-4-yl)-3-phenyl-2-(trifluoromethyl)pyrazolo[1,5-a]pyrimidin-7(4H)-one], the IC50 in test [1] is < 20 µM; in test [2] it was > 100 µM.

Consider `COc1cccc2oc(-c3c(C(=O)Nc4ccn(C)n4)[nH]c4c(-c5ccccc5)c(C(F)(F)F)nn4c3=O)nc12` [Compound C1256, 6-(4-methoxybenzo[d]oxazol-2-yl)-N-(1-methyl-1H-pyrazol-3-yl)-7-oxo-3-phenyl-2-(trifluoromethyl)-4,7-dihydropyrazolo[1,5-a]pyrimidine-5-carboxamide], for which the IC50 was < 20 µM in test [1] and > 100 µM in test [2].

For the compound `COc1cccc2oc(-c3c(N4CCCC(C(=O)O)C4)[nH]c4c(-c5ccccc5)c(C(F)(F)F)nn4c3=O)nc12` (centres unmarked) [Compound C1257, 1-(6-(4-methoxybenzo[d]oxazol-2-yl)-7-oxo-3-phenyl-2-(trifluoromethyl)-4,7-dihydropyrazolo[1,5-a]pyrimidin-5-yl)piperidine-3-carboxylic acid], the IC50 in test [1] is < 20 µM; in test [2], > 100 µM.

With `COc1cccc2oc(-c3c(N4CCOCC4)[nH]c4c(-c5ccccc5)c(C(F)(F)F)nn4c3=O)nc12` [Compound C1258, 6-(4-methoxybenzo[d]oxazol-2-yl)-5-morpholino-3-phenyl-2-(trifluoromethyl)pyrazolo[1,5-a]pyrimidin-7(4H)-one], the IC50 in test [1] and in test [2] was < 20 µM each time.

Regarding `COc1cccc2oc(-c3c(COC4COC4)[nH]c4c(-c5ccccc5)c(C#N)nn4c3=O)nc12` [Compound C1259, 6-(4-methoxybenzo[d]oxazol-2-yl)-5-((oxetan-3-yloxy)methyl)-7-oxo-3-phenyl-4,7-dihydropyrazolo[1,5-a]pyrimidine-2-carbonitrile], the figures for the IC50 in test [1] and in test [2] were < 20 µM and > 100 µM, respectively.

Take `Cc1[nH]c2c(C(C)C)c(C(F)(F)F)nn2c(=O)c1-c1ccccc1` [Compound C1269, 3-isopropyl-5-methyl-6-phenyl-2-(trifluoromethyl)pyrazolo[1,5-a]pyrimidin-7(4H)-one]: the IC50 was > 250 µM in test [1] and 20 to 100 µM in test [2].

Turning to `Cc1[nH]c2c(-c3ccccc3)c(C#N)nn2c(=O)c1-c1nc2ccc(N)c(Cl)c2o1` [Compound C1271, 6-(6-amino-7-chlorobenzo[d]oxazol-2-yl)-5-methyl-7-oxo-3-phenyl-4,7-dihydropyrazolo[1,5-a]pyrimidine-2-carbonitrile], the IC50 in test [1] is < 20 µM; in test [2] it was > 100 µM.

As for `Cc1[nH]c2c(-c3ccccc3)c(C#N)nn2c(=O)c1-c1nc2c(N(C)C)cccc2o1` [Compound C1272, 6-(4-(dimethylamino)benzo[d]oxazol-2-yl)-5-methyl-7-oxo-3-phenyl-4,7-dihydropyrazolo[1,5-a]pyrimidine-2-carbonitrile], the IC50 in test [1] and in test [2] was < 20 µM each time.

For `Cc1[nH]c2c(-c3ccccc3)c(C#N)nn2c(=O)c1-c1ccccc1` [Compound C1273, 5-methyl-7-oxo-3,6-diphenyl-4,7-dihydropyrazolo[1,5-a]pyrimidine-2-carbonitrile], the IC50 in test [1] and in test [2] was < 20 µM in each case.

With `CNc1cccc2oc(-c3c(C)[nH]c4c(-c5ccccc5)c(C#N)nn4c3=O)nc12` [Compound C1274, 5-methyl-6-(4-(methylamino)benzo[d]oxazol-2-yl)-7-oxo-3-phenyl-4,7-dihydropyrazolo[1,5-a]pyrimidine-2-carbonitrile], the results for the IC50 in test [1] and in test [2] were < 20 µM and > 100 µM, respectively.

`Cc1[nH]c2c(-c3ccccc3)c(C#N)nn2c(=O)c1-c1nc2cnccc2o1` [Compound C1275, 5-methyl-6-(oxazolo[4,5-c]pyridin-2-yl)-7-oxo-3-phenyl-4,7-dihydropyrazolo[1,5-a]pyrimidine-2-carbonitrile]: the half-inhibitory concentration (IC50) in test [1] is < 20 µM; in test [2] it was > 100 µM.

With `Cc1[nH]c2c(-c3ccccc3)c(C(F)(F)F)nn2c(=O)c1-c1nnc(C2CCCCC2)o1` [Compound D1004, 6-(5-cyclohexyl-1,3,4-oxadiazol-2-yl)-5-methyl-3-phenyl-2-(trifluoromethyl)pyrazolo[1,5-a]pyrimidin-7(4H)-one], the IC50 is < 20 µM in test [1] and > 100 µM in test [2].

On to `Cc1[nH]c2c(-c3ccccc3)c(C(F)(F)F)nn2c(=O)c1-c1nnc(-c2ccco2)o1` [Compound D1007, 6-(5-(furan-2-yl)-1,3,4-oxadiazol-2-yl)-5-methyl-3-phenyl-2-(trifluoromethyl)pyrazolo[1,5-a]pyrimidin-7(4H)-one], for which the IC50 in test [1] was > 250 µM; in test [2], 20 to 100 µM.

As for `Cc1[nH]c2c(-c3ccccc3)c(C(F)(F)F)nn2c(=O)c1-c1nnc(C(C)(O)C(F)(F)F)o1` (centres unmarked) [Compound D1008, 5-methyl-3-phenyl-6-(5-(1,1,1-trifluoro-2-hydroxypropan-2-yl)-1,3,4-oxadiazol-2-yl)-2-(trifluoromethyl)pyrazolo[1,5-a]pyrimidin-7(4H)-one], the IC50 in test [1] is 20 to 250 µM; in test [2], > 100 µM.

`Cc1[nH]c2c(-c3ccccc3)c(C(F)(F)F)nn2c(=O)c1-c1nnc(C2CCCO2)o1` (centres unmarked) [Compound D1012, 5-methyl-3-phenyl-6-(5-(tetrahydrofuran-2-yl)-1,3,4-oxadiazol-2-yl)-2-(trifluoromethyl)pyrazolo[1,5-a]pyrimidin-7(4H)-one]: the figures for the IC50 in test [1] and in test [2] were < 20 µM and > 100 µM, respectively.

With `Cc1[nH]c2c(-c3ccccc3)c(C(F)(F)F)nn2c(=O)c1-c1nnc(N2CCCC2)o1` [Compound D1014, 5-methyl-3-phenyl-6-(5-(pyrrolidin-1-yl)-1,3,4-oxadiazol-2-yl)-2-(trifluoromethyl)pyrazolo[1,5-a]pyrimidin-7(4H)-one], the IC50 in test [1] is < 20 µM; in test [2], > 100 µM.

With `Cc1[nH]c2c(-c3ccccc3)c(C(F)(F)F)nn2c(=O)c1-c1nnc(C2CCCOC2)o1` (centres unmarked) [Compound D1015, 5-methyl-3-phenyl-6-(5-(tetrahydro-2H-pyran-3-yl)-1,3,4-oxadiazol-2-yl)-2-(trifluoromethyl)pyrazolo[1,5-a]pyrimidin-7(4H)-one], the figures for the IC50 in test [1] and in test [2] were 20 to 250 µM and > 100 µM, respectively.
